Where two headings read alike, the source gives them in different places.
Columns and labels:
BurB = type: biochemical, Burkholderia thailandensis
[1] = molecular target: BurB from Burkholderia thailandensis (Burkholderia thailandensis); assay: SEC

`C[S+](CC[C@H](N)C(=O)O)C[C@H]1O[C@@H](n2cnc3c(N)ncnc32)[C@H](O)[C@@H]1O` (stereo partly drawn) [SAM] was tested, and the Km (BurB) was 1.8 mM.

With “BurB from Burkholderia thailandensis (enzyme)” the stoichiometry N [1] was 4.

With `CSCC[C@H](N)C(=O)O` [Met] the Km (BurB; pH 9.0, 40 °C) was 16.6 mM.
